Laboratory results reported in patent US7351736B2, “Therapeutic compositions (II)” (priority 1998, dated 2008).
Read-outs that look alike come from different tables or passages of the source.

Experiments:
[1] = liquid diet, glucose (47% of caloric content) substituted; cited from earlier work
[2] = set-up: species or system rats; conditions: rat, in vivo, 30 min
Protocol: Control rats (n=2) were killed at 60 and 180 minutes after ingestion of yoghurt while triolide fed rats were killed at 80, 140, 150 and 155 minutes. Blood samples were taken for assay of (R)-3-hydroxybutyrate. Brains were funnel frozen and later extracted in perchloric acid and extracts neutralised and assayed. Blood levels of (R)-3-hydroxybutyrate were measured using a […] assay of Anal. Biochem (1983) 131, p478-482. 1.0 ml of a solution made up from 2-amino-2-methyl-1-propanol (100 mM pH 9.9, 0.094 g/10 ml), NAD^+ (30 mM, 0.199 g/10 ml) and EDTA (4 mM, 0.015 g/10 ml) was added to each of a number of cuvettes and 4 μl sample or (R)-3-hydroxybutyrate control.
The ability of orally administered (R)-3-hydroxybutyrate and the linear oligomers of Comparative examples 1 and 2 to raise blood ketone body levels was investigated as follows. Rats were fasted overnight and then gavaged with 100 μl/100 g bodyweight of 4M (R)-3-hydroxybutyrate brought to pH 7.4 using methyl glucamine. Plasma levels of (R)-3-hydroxybutyrate were measured at 0.62 mM after 30 minutes as compared to 3 mM when 9M (R)-3-hydroxybutyrate is used.
This procedure was repeated with 2M solutions of the mixtures (R)-3-hydroxybutyrate oligomers and their acetoacetyl esters described in Comparative Examples 1 and 2.

[3] = system: primary hippocampal cultures; assay: Hippocampal microisland cultures with or without amyloid β1-42; type: cell-based, Wistar embryos; conditions: for neuronal cell number per microisland (mean): increase from a mean of 30
Protocol: The serum free medium used from 0 to day 4 contained Neurobasal medium with B27 supplement diluted 50 fold (Life Technology, Gaithersburg, Md.) to which was added: 0.5 mM L-glutamine, 25 μM Na L-glutamate, 100 U/ml penicillin and 100 μg/ml streptomycin. After day 4, DMEM/F12 medium containing 5 μM insulin, 30 nM 1-thyroxine, […] progesterone, 30 nM Na selenite 100 U/ml penicillin and 100 μg/ml streptomycin were used.
The primary hippocampal cultures were removed from Wistar embryos on day 18 and dispersed by gentle agitation in a pipette. The suspension was centrifuged at 1,500×g for 10 min and the supernatant discarded. The pellet was resuspended in new media to a final cell count of […]. Ten μl of this suspension was pipetted into the center of poly D-lysine coated culture wells and the plates incubated at 38° C. for 4 hrs and then 400 μl of fresh Neurobasal media was added. After 2 days of incubation, half of the media was exchanged for fresh media and the incubation continued for 2 more days. After day 4, the medium was changed with DMEM/F12 medium containing 5 μM insulin, 30 nM 1-thyroxine, 20 nM progesterone, 30 nM Na selenite 100 U/ml penicillin and 100 μg/ml streptomycin. […] These media were exchanged 2 days later (day 8) and the cells were fixed on day 10 and stained with anti MAP2 (Boehringer Manheim, Indianapolis Ind.) to visualize neurons and vimentin and GFAP (Boehringer) to visualize glial cells.

[4] = unesterified state, room temperature; cited from earlier work
[5] = human, cited from earlier work
[6] = Oral administration of triolide in yoghurt to rats, plasma (R)-3-hydroxybutyrate; type: in vivo, Wistar rats; conditions: about 0.4 g triolide in yoghurt
Protocol: The ability of orally administered triolide to raise blood ketone levels was investigated as follows. The day before the experiment commenced, 12 Wistar rats weighing 316+10 g were placed in separate cages. They had no access to food for 15 hours prior to presentation with triolide containing compositions, but water was provided ad libitum.
On the morning of the experiment 0.64 g of triolide was mixed with 5 g Co-op brand Black Cherry yoghurt in separate feeding bowls for 9 of the rats. The remaining 3 rats were given 5 g of the yoghurt without the triolide as controls. The yoghurt containing bowls were placed in the cages and the rats timed while they ate. Two of the three control rats ate all the yoghurt and four of the […] ate approximately half the provided amount. The remaining six rats slept.
Control rats (n=2) were killed at 60 and 180 minutes after ingestion of yoghurt while triolide fed rats were killed at 80, 140, 150 and 155 minutes. Blood samples were taken for assay of (R)-3-hydroxybutyrate. Brains were funnel frozen and later extracted in perchloric acid and extracts neutralised and assayed. Blood levels of (R)-3-hydroxybutyrate were measured using a […] assay of Anal. Biochem (1983) 131, p478-482. […]

[7] = Rats fed triolide in 'Hob-Nob' biscuit, ill effects; type: in vivo; conditions: two rats fed approximately 1.5 g triolide each in 'Hob-Nob' biscuit; after two weeks
[8] = presence of (R)-3-hydroxybutyrate, whether β1-42 was present or not

CC(O)CCO (racemic) [racemic 1,3 butandiol]
blood (R)-3-hydroxybutyrate concentration [1]: 0.98 mM
blood acetoacetate concentration [1]: 0.33 mM
rise of blood ketone concentration [1]: about 10 fold

C[C@@H](O)CC(=O)O [(R)-3-hydroxybutyrate, (R)-3-hydroxybutyric acid]
plasma level of (R)-3-hydroxybutyrate [2]: 3000 µM
plasma level of (R)-3-hydroxybutyrate ([2]; pH 7.4): 620 µM
neuronal cell number per microisland (mean) ([3]; 8 mM (R)-3-hydroxybutyrate added to cultures containing amyloid β1-42): 70 cells per microisland
neuronal cell number per microisland (mean) ([3]; 8 mM (R)-3-hydroxybutyrate, no amyloid β1-42): 70 cells per microisland
length of axons [3, 8]: increased
number of dendritic outgrowths [3, 8]: increased

CC(=O)CC(=O)O [acetoacetate]
half time of spontaneous decarboxylation to acetone [4]: about 30 days

C[C@@H](O)CC(=O)[O-].[Na+] [sodium salts of (R)-3-hydroxybutyrate]
toxicity on intravenous infusion ([5]; in vivo, iv): non-toxic
decreasing leucine oxidation ([5]; intravenous infusion): ineffective
glucose free fatty acids and glycerol concentration ([5]; intravenous infusion): capable of decreasing

C[C@@H]1CC(=O)O[C@H](C)CC(=O)O[C@H](C)CC(=O)O1 [triolide, (R,R,R)-4,8,12-trimethyl-1,5,9-trioxadodeca-2,6,10-trione]
ill effects from ingestion of triolide [6]: no ill effects
ill effects [7]: no ill effects
melting point: 107 to 108 °C
